# Results reported in patent US8802597B2, “Herbicidal pyrimidines” (E I du Pont de Nemours and Company, priority 2003, dated 2014).
# How the values were obtained:
# Assay type in all cases: in vivo
# [1] = test system: umbrella sedge (Cyperus difformis); assay: Test B flooded paddy test; settings: Flood, scale 0 to 100
# In short: (§1)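 Visual injury scoring (0 = no effect, 100 = complete control) versus controls made 13 to 15 days after treatment in the greenhouse. Test species were grown in flooded paddy to the 2-leaf stage: rice, barnyardgrass, umbrella sedge, duck salad.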
# rice (Oryza sativa) = assay: Test B flooded paddy test; settings: Flood, scale 0 to 100
# In short: as §1
# [2] = test system: duck salad (Heteranthera limosa); assay: Test B flooded paddy test; settings: Flood, scale 0 to 100
# In short: as §1
# [3] = test system: barnyardgrass (Echinochloa crus-galli); assay: Test B flooded paddy test; settings: Flood, scale 0 to 100
# In short: as §1
# corn (Zea mays) = assay: Test B pre/postemergence; settings: for Corn plant response rating: Postemergence; for Plant response rating, Corn: Preemergence
# In short: (§2)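 Compounds in non-phytotoxic solvent with surfactant applied preemergence to planted seeds or postemergence to plants 2 to 18 cm tall (1- to 4-leaf stage). Greenhouse 13 to 15 days, then visual rating against controls on a 0 to 100 scale (100 = complete control).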
# [4] = test system: pigweed (Amaranthus retroflexus); assay: Test B pre/postemergence; settings: Postemergence, scale 0 to 100 (0 no effect, 100 complete control)
# In short: as §2
# [5] = test system: lambsquarters (Chenopodium album); assay: Test B pre/postemergence; settings: Postemergence, scale 0 to 100 (0 no effect, 100 complete control)
# In short: as §2
# [6] = test system: morningglory (Ipomoea coccinea); assay: Test B pre/postemergence; settings: for Morningglory plant response rating: Postemergence; for Plant response rating, Morningglory: Preemergence
# In short: as §2
# [7] = test system: cocklebur (Xanthium strumarium); assay: Test B pre/postemergence; settings: for Cocklebur plant response rating: Postemergence; for Plant response rating, Cocklebur: Preemergence
# In short: as §2
# [8] = test system: Surinam grass (Brachiaria decumbens); assay: Test B pre/postemergence; settings: for Surinam Grass plant response rating: Postemergence; for Plant response rating, Surinam Grass: Preemergence
# In short: as §2
# [9] = test system: crabgrass (Digitaria sanguinalis); assay: Test B pre/postemergence; settings: for Crabgrass plant response rating: Postemergence; for Plant response rating, Crabgrass: Preemergence
# In short: as §2
# [10] = test system: velvetleaf (Abutilon theophrasti); assay: Test B pre/postemergence; settings: for Velvetleaf plant response rating: Postemergence; for Plant response rating, Velvetleaf: Preemergence
# In short: as §2
# [11] = test system: barnyardgrass (Echinochloa crus-galli); assay: Test B pre/postemergence; settings: Postemergence, scale 0 to 100 (0 no effect, 100 complete control)
# In short: as §2
# [12] = test system: giant foxtail (Setaria faberii); assay: Test B pre/postemergence; settings: for Foxtail, Giant plant response rating: Postemergence; for Plant response rating, Foxtail, Giant: Preemergence
# In short: as §2
# [13] = test system: wheat (Triticum aestivum); assay: Test B pre/postemergence; settings: for Wheat plant response rating: Postemergence; for Plant response rating, Wheat: Preemergence
# In short: as §2
# [14] = test system: blackgrass (Alopecurus myosuroides); assay: Test B postemergence; settings: scale 0 to 100 (0 no effect, 100 complete control)
# In short: as §2
# wild oat (Avena fatua) = assay: Test B postemergence; settings: scale 0 to 100 (0 no effect, 100 complete control)
# In short: as §2
# [15] = 62 g ai/ha, scale 0 to 100 (0 no effect, 100 complete control)
# [16] = 125 g ai/ha, scale 0 to 100 (0 no effect, 100 complete control)
# [17] = 62 g ai/ha, scale 0 to 100, 0 no effect, 100 complete control
structure (smiles),measurement,setting,value
Nc1nc(-c2ccc(Cl)cc2)nc(C(=O)O)c1Br [Compound 88],"Plant response rating, Sedge, Umbrella",[1]; 125 g ai/ha,60
same,"Plant response rating, Sedge, Umbrella",[1]; 500 g ai/ha,90
same,"Plant response rating, Rice",rice (Oryza sativa); 125 g ai/ha,0
same,"Plant response rating, Rice",rice (Oryza sativa); 500 g ai/ha,0
same,"Plant response rating, Ducksalad",[2]; 125 g ai/ha,90
same,"Plant response rating, Ducksalad",[2]; 500 g ai/ha,90
same,"Plant response rating, Barnyardgrass",[3]; 125 g ai/ha,0
same,"Plant response rating, Barnyardgrass",[3]; 500 g ai/ha,0
same,Corn plant response rating,corn (Zea mays); [15],70
same,Corn plant response rating,corn (Zea mays); [16],80
same,"Plant response rating, Corn",corn (Zea mays); [17],0
same,"Plant response rating, Corn",corn (Zea mays); [16],10
same,Pigweed plant response rating,[4]; 62 g ai/ha,100
same,Pigweed plant response rating,[4]; 125 g ai/ha,100
same,Lambsquarters plant response rating,[5]; 62 g ai/ha,100
same,Lambsquarters plant response rating,[5]; 125 g ai/ha,100
same,Morningglory plant response rating,[6]; [15],60
same,Morningglory plant response rating,[6]; [16],90
same,"Plant response rating, Morningglory",[6]; [17],0
same,"Plant response rating, Morningglory",[6]; [16],10
same,Cocklebur plant response rating,[7]; [15],100
same,Cocklebur plant response rating,[7]; [16],100
same,"Plant response rating, Cocklebur",[7]; [17],60
same,"Plant response rating, Cocklebur",[7]; [16],90
same,Surinam Grass plant response rating,[8]; [15],80
same,Surinam Grass plant response rating,[8]; [16],80
same,"Plant response rating, Surinam Grass",[8]; [17],20
same,"Plant response rating, Surinam Grass",[8]; [16],50
same,Crabgrass plant response rating,[9]; [15],70
same,Crabgrass plant response rating,[9]; [16],80
same,"Plant response rating, Crabgrass",[9]; [17],50
same,"Plant response rating, Crabgrass",[9]; [16],70
same,Velvetleaf plant response rating,[10]; [15],90
same,Velvetleaf plant response rating,[10]; [16],100
same,"Plant response rating, Velvetleaf",[10]; [17],70
same,"Plant response rating, Velvetleaf",[10]; [16],90
same,Barnyardgrass plant response rating,[11]; 62 g ai/ha,90
same,Barnyardgrass plant response rating,[11]; 125 g ai/ha,90
same,"Foxtail, Giant plant response rating",[12]; [15],60
same,"Foxtail, Giant plant response rating",[12]; [16],70
same,"Plant response rating, Foxtail, Giant",[12]; [17],10
same,"Plant response rating, Foxtail, Giant",[12]; [16],30
same,Wheat plant response rating,[13]; [15],50
same,Wheat plant response rating,[13]; [16],60
same,"Plant response rating, Wheat",[13]; [17],50
same,"Plant response rating, Wheat",[13]; [16],70
same,Blackgrass plant response rating,[14]; 62 g ai/ha,40
same,Blackgrass plant response rating,[14]; 125 g ai/ha,60
same,"Oat, Wild plant response rating",wild oat (Avena fatua); 62 g ai/ha,40
same,"Oat, Wild plant response rating",wild oat (Avena fatua); 125 g ai/ha,50
